Literature values, collected in patent US20140323444A1, “ANTI-INFLAMMATORY AND ANTIDIABETIC AGENTS” (priority 2013, published 2014).

Assays:
[1] = tested on: patients with type 2 diabetes
[2] = compared with placebo; in contrast to aspirin
platelet aggregation = conditions: unlike aspirin
prostaglandin synthesis = conditions: in vivo; compared with aspirin and indomethacin

inhibition of platelet aggregation (platelet aggregation): does not inhibit platelet aggregation
SMILES: O=C(Oc1ccccc1C(=O)O)c1ccccc1O [salsalate, 2-(2-hydroxybenzoyl)oxybenzoic acid]
adiponectin concentrations ([1]; in vivo): increase adiponectin concentrations
circulating insulin ([1]; in vivo): increase circulating insulin
glucose utilization ([1]; in vivo): improve glucose utilization
C-reactive protein ([1]; patients with type 2 diabetes): lowers
HbA1c levels ([1]; patients with type 2 diabetes): lowers
blood glucose ([1]; patients with type 2 diabetes): lowers
free fatty acid ([1]; patients with type 2 diabetes): lowers
triglycerides ([1]; patients with type 2 diabetes): lowers
fecal gastrointestinal blood loss [2]: no greater fecal gastrointestinal blood loss than placebo
anti-inflammatory activity (prostaglandin synthesis): equivalent to aspirin and indomethacin
